Source: PubChem BioAssay AID256 (DTP/NCI, 2004)
Inconclusive results and toxic doses are left out. The calls were made as follows: active = survival T/C of 150% or more; inactive = T/C below 125% in these data.

Tested on: CD2F1 mice, L1210 leukemia ip, survival T/C
Test: NCI In Vivo Anticancer Drug Screen. Data for tumor model L1210 Leukemia (intraperitoneal) in CD2F1 (CDF1) mice
Details: endpoint: mean survival time, higher = longer survival
Procedure, shortened: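 In this screen, transplantable tumors were grown in mice given either the compound or its vehicle. Results were expressed as the treated measurement relative to the control measurement.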

[1] = dose: 100.0 mg/kg/injection, schedule: Q01DX009 (ip), vehicle: saline
[2] = dose: 100.0 mg/kg/injection, schedule: Q04DX003 (ip), vehicle: saline
[3] = dose: 200.0 mg/kg/injection, schedule: Q01DX009 (ip), vehicle: saline
[4] = dose: 200.0 mg/kg/injection, schedule: Q04DX003 (ip), vehicle: saline
[5] = dose: 400.0 mg/kg/injection, schedule: Q04DX003 (ip), vehicle: saline
[6] = dose: 75.0 mg/kg/injection, schedule: Q01DX001 (ip), vehicle: saline
[7] = dose: 100.0 mg/kg/injection, schedule: Q01DX001 (ip), vehicle: saline with Tween-80
[8] = dose: 100.0 mg/kg/injection, schedule: Q01DX009 (ip), vehicle: saline with Tween-80
[9] = dose: 200.0 mg/kg/injection, schedule: Q01DX001 (ip), vehicle: saline with Tween-80
[10] = dose: 200.0 mg/kg/injection, schedule: Q01DX009 (ip), vehicle: saline with Tween-80
[11] = dose: 400.0 mg/kg/injection, schedule: Q01DX001 (ip), vehicle: saline with Tween-80
[12] = dose: 400.0 mg/kg/injection, schedule: Q01DX009 (ip), vehicle: saline with Tween-80
[13] = dose: 5.0 mg/kg/injection, schedule: Q01DX009 (ip), vehicle: saline with Tween-80
[14] = dose: 5.0 mg/kg/injection, schedule: Q04DX003 (ip), vehicle: saline with Tween-80
[15] = dose: 10.0 mg/kg/injection, schedule: Q01DX009 (ip), vehicle: saline with Tween-80
[16] = dose: 10.0 mg/kg/injection, schedule: Q04DX003 (ip), vehicle: saline with Tween-80
[17] = dose: 20.0 mg/kg/injection, schedule: Q01DX009 (ip), vehicle: saline with Tween-80
[18] = dose: 20.0 mg/kg/injection, schedule: Q04DX003 (ip), vehicle: saline with Tween-80
[19] = dose: 100.0 mg/kg/injection, schedule: Q04DX002 (ip), vehicle: saline with Tween-80
[20] = dose: 200.0 mg/kg/injection, schedule: Q04DX002 (ip), vehicle: saline with Tween-80
[21] = dose: 100.0 mg/kg/injection, schedule: Q04DX003 (ip), vehicle: saline with Tween-80
[22] = dose: 200.0 mg/kg/injection, schedule: Q04DX003 (ip), vehicle: saline with Tween-80
[23] = dose: 100.0 mg/kg/injection, schedule: Q01DX009 (ip), vehicle: other
[24] = dose: 200.0 mg/kg/injection, schedule: Q01DX009 (ip), vehicle: other
[25] = dose: 100.0 mg/kg/injection, schedule: Q01DX001 (ip), vehicle: saline
[26] = dose: 200.0 mg/kg/injection, schedule: Q01DX001 (ip), vehicle: saline
[27] = dose: 400.0 mg/kg/injection, schedule: Q01DX001 (ip), vehicle: saline

Measured: T/C

CN(C)CCCNCCCCNCCCN(C)C
inactive: [1] 102 % of control | [2] 96 % of control | [3] 102 % of control | [4] 101 % of control | [5] 106 % of control

CC1[N-]C(/C=N/O)NC(C)N1.CC1[N-]C(/C=N/O)NC(C)N1.[Br][Ni+2][Br] (centres undefined)
inactive: dose: 5.0 mg/kg/injection, schedule: Q01DX001 (ip), vehicle: saline 105 % of control | dose: 10.0 mg/kg/injection, schedule: Q01DX001 (ip), vehicle: saline 103 % of control | dose: 20.0 mg/kg/injection, schedule: Q01DX001 (ip), vehicle: saline 105 % of control | dose: 40.0 mg/kg/injection, schedule: Q01DX001 (ip), vehicle: saline 108 % of control | [6] 106 % of control | dose: 80.0 mg/kg/injection, schedule: Q01DX001 (ip), vehicle: saline 105 % of control

CCN(CCc1ccc(N)cc1)C(Cc1ccccc1)c1cccc(OC)c1 (centres undefined)
inactive: dose: 12.5 mg/kg/injection, schedule: Q01DX009 (ip), vehicle: saline 102 % of control | dose: 12.5 mg/kg/injection, schedule: Q04DX003 (ip), vehicle: saline 103 % of control | dose: 25.0 mg/kg/injection, schedule: Q01DX009 (ip), vehicle: saline 97 % of control | dose: 25.0 mg/kg/injection, schedule: Q04DX003 (ip), vehicle: saline 97 % of control | dose: 50.0 mg/kg/injection, schedule: Q01DX009 (ip), vehicle: saline 100 % of control | dose: 50.0 mg/kg/injection, schedule: Q04DX003 (ip), vehicle: saline 95 % of control

N#CCCOS(=O)(=O)c1ccc(N)c([N+](=O)[O-])c1
inactive: [7] 103 % of control | [8] 93 % of control | [9] 100 % of control | [10] 96 % of control | [11] 102 % of control | [12] 96 % of control

Clc1cc2ccccc2c(Cl)n1
inactive: [7] 92 % of control | [9] 89 % of control

Cc1ccc(S(=O)(=O)/C=C(\Cl)S(=O)(=O)C(C)(C)C)cc1
inactive: dose: 25.0 mg/kg/injection, schedule: Q01DX001 (ip), vehicle: saline with Tween-80 93 % of control | dose: 50.0 mg/kg/injection, schedule: Q01DX001 (ip), vehicle: saline with Tween-80 104 % of control

Cc1c(C)c(Cl)c(C)c(C)c1Cl
inactive: [13] 98 % of control | [14] 100 % of control | [15] 104 % of control | [16] 100 % of control | [17] 98 % of control | [18] 105 % of control

Cc1ccc(S(=O)(=O)Oc2ccc(Cl)cc2)cc1
inactive: [8] 101 % of control | [10] 98 % of control | [12] 98 % of control

CN1Cc2c([nH]c3ccccc23)C(O)C1 (centres undefined)
inactive: [6] 98 % of control | dose: 150.0 mg/kg/injection, schedule: Q01DX001 (ip), vehicle: saline 106 % of control

OC(COc1ccccc1)COc1ccccc1
inactive: [8] 98 % of control | [10] 93 % of control | [12] 89 % of control

CCOc1ccccc1/C=C1\N=C(c2ccc([N+](=O)[O-])cc2)OC1=O
inactive: [19] 95 % of control | [20] 91 % of control | dose: 400.0 mg/kg/injection, schedule: Q04DX002 (ip), vehicle: saline with Tween-80 100 % of control

CCCCCCCCCCCCCCCCOc1ccc(S(=O)(=O)N(C)C)cc1[N+](=O)[O-]
inactive: [21] 90 % of control | [22] 96 % of control | dose: 400.0 mg/kg/injection, schedule: Q04DX003 (ip), vehicle: saline with Tween-80 90 % of control

CC(=O)c1c(C)cc2cccc(OC3OC(CO)C(O)C(O)C3O)c2c1O (centres undefined) (tested in a mixture with another compound)
inactive: [2] 103 % of control | [4] 104 % of control | [5] 107 % of control

COC(CCl)(CCl)OC
inactive: [15] 87 % of control | [17] 90 % of control

O=C(/C=C/c1ccc(OCc2ccccc2)c(OCc2ccccc2)c1)OCc1ccccc1
inactive: dose: 25.0 mg/kg/injection, schedule: Q04DX002 (ip), vehicle: saline with Tween-80 102 % of control | dose: 50.0 mg/kg/injection, schedule: Q04DX002 (ip), vehicle: saline with Tween-80 91 % of control | [19] 95 % of control | [20] 95 % of control

Cc1ccc(C)c(C(O)C(=O)O)c1 (centres undefined)
inactive: dose: 100.0 mg/kg/injection, schedule: Q04DX002 (ip), vehicle: Klucel (hydroxypropylcellulose) (HPC) 94 % of control | dose: 200.0 mg/kg/injection, schedule: Q04DX002 (ip), vehicle: Klucel (hydroxypropylcellulose) (HPC) 105 % of control | dose: 400.0 mg/kg/injection, schedule: Q04DX002 (ip), vehicle: Klucel (hydroxypropylcellulose) (HPC) 98 % of control

C1CCC(N=C(NC2CCCCC2)NC2CCCCC2)CC1
inactive: [21] 109 % of control | [22] 100 % of control

COc1cc(C(=O)N/N=C/c2ccc(N(C)C)cc2)cc(OC)c1OC
inactive: [8] 119 % of control | [10] 98 % of control

C[N+]1(C)N=C([O-])N(c2cccc3ccccc23)C1=O
inactive: [7] 98 % of control | [8] 103 % of control | [9] 101 % of control | [10] 108 % of control | [11] 98 % of control

O=C(NC(CSSCC(NC(=O)OCc1ccccc1)C(=O)O)C(=O)O)OCc1ccccc1 (centres undefined)
inactive: [23] 95 % of control | [24] 95 % of control | dose: 400.0 mg/kg/injection, schedule: Q01DX009 (ip), vehicle: other 98 % of control

COc1ccc2c3csc4ccccc4c-3nc2c1
inactive: [21] 91 % of control

COC(=O)CC(CC(=O)OC)N1CCCC1
inactive: [25] 102 % of control | [26] 102 % of control | [27] 102 % of control

COC(=O)C1CCN1C(C)C (centres undefined)
inactive: dose: 12.5 mg/kg/injection, schedule: Q01DX009 (ip), vehicle: other 106 % of control | dose: 25.0 mg/kg/injection, schedule: Q01DX009 (ip), vehicle: other 106 % of control | dose: 50.0 mg/kg/injection, schedule: Q01DX009 (ip), vehicle: other 96 % of control | [23] 98 % of control | [24] 98 % of control

CCCCCCCCCC/C=C/C1=C(N=[N+]=N)C(=O)c2ccccc2C1=O
inactive: dose: 100.0 mg/kg/injection, schedule: Q01DX001 (ip), vehicle: other 92 % of control | dose: 200.0 mg/kg/injection, schedule: Q01DX001 (ip), vehicle: other 92 % of control | dose: 400.0 mg/kg/injection, schedule: Q01DX001 (ip), vehicle: other 94 % of control

CC(=O)Oc1ccc2ccccc2c1
inactive: dose: 25.0 mg/kg/injection, schedule: Q01DX009 (ip), vehicle: saline with Tween-80 100 % of control | dose: 50.0 mg/kg/injection, schedule: Q01DX009 (ip), vehicle: saline with Tween-80 107 % of control | [7] 107 % of control

O=C1CC(=O)NC(=O)N1
inactive: [8] 102 % of control | [10] 97 % of control | [12] 96 % of control

O=C1/C(=C/c2ccccc2)CCSc2ccccc21
inactive: [7] 90 % of control | [9] 94 % of control | [11] 90 % of control

C(=C\c1ccccc1)/C[P+](c1ccccc1)(c1ccccc1)c1ccccc1
inactive: [13] 98 % of control | [14] 100 % of control | [15] 100 % of control | [16] 100 % of control | [17] 94 % of control | [18] 97 % of control

COC(=O)C(N)CSSCC(N)C(=O)OC (centres undefined)
inactive: [25] 108 % of control | [1] 102 % of control | [26] 97 % of control | [3] 94 % of control | [27] 100 % of control | dose: 400.0 mg/kg/injection, schedule: Q01DX009 (ip), vehicle: saline 94 % of control
